Reference: the NIST ThermoML archive (doi:10.1021/acs.jced.8b00438)

Assay: xn = mol fraction of the nth substance listed
Settings: 100 kPa, Liquid; for mass density: Vibrating tube method; for viscosity: Falling or rolling sphere viscometry

C1CCC(C2CCCCC2)CC1 [1,1'-bicyclohexyl] + CCCCCCCCCCCC
Settings	mass density, 313.15 K [kg/m3]	mass density, 318.15 K [kg/m3]	mass density, 323.15 K [kg/m3]	mass density, 328.15 K [kg/m3]	mass density, 333.15 K [kg/m3]	viscosity, 318.15 K [mPa·s]	viscosity, 323.15 K [mPa·s]	viscosity, 328.15 K [mPa·s]	viscosity, 333.15 K [mPa·s]
x2 = 0	871.66	868.08	864.5	860.93	857.35	2.296	2.092	1.915	1.762
x2 = 0.1055	854.82	851.24	847.66	844.08	840.5	2.012	1.842	1.693	1.563
x2 = 0.2016	840.23	836.64	833.06	829.47	825.89	1.815	1.667	1.536	1.423
x2 = 0.3019	825.35	821.76	818.17	814.58	810.98	1.629	1.501	1.389	1.288
x2 = 0.398	811.56	807.96	804.36	800.76	797.16	1.489	1.376	1.276	1.186
x2 = 0.5006	797.36	793.76	790.16	786.54	782.93	1.377	1.275	1.184	1.104
x2 = 0.5953	784.58	780.98	777.36	773.74	770.11	1.288	1.195	1.112	1.039
x2 = 0.6911	772.09	768.48	764.85	761.22	757.59	1.203	1.119	1.043	0.976
x2 = 0.7985	758.53	754.91	751.27	747.63	743.98	1.119	1.041	0.973	0.91
x2 = 0.8888	747.5	743.86	740.21	736.56	732.9	1.05	0.978	0.914	0.856
